Some test systems named below: NCI-H522 lung; U251 CNS; UACC-257 melanoma; HT29 colon; IGROV1 ovarian; MALME-3M melanoma; OVCAR-3 ovarian; NCI/ADR-RES ovarian; SF-268 CNS; TK-10 renal.
Common to all, as to assay: NCI-60 cell line screen, 48 h

Molecules are shown by their SMILES.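 96-well plates; 48 h exposure; 5 concentrations. Endpoints by linear interpolation between flanking doses. Not reached: highest tested concentration assigned. GI50 = concentration required for 50% inhibition of growth. TGI: concentration producing complete growth inhibition.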 Where only a bound is given, the exact number is not on record here.

For `Oc1ccc(-c2nc(-c3ccc4oc5ccc(-c6[nH]c(-c7ccc(O)cc7)nc6-c6ccccc6)cc5c4c3)c(-c3ccccc3)[nH]2)cc1`, the GI50 was 2.95 µM in the assay with NCI-H522 lung; 2.93 µM in the assay on U251 CNS; 10.3 µM with UACC-257 melanoma; 3.8 µM with HT29 colon; 4.54 µM in the assay with IGROV1 ovarian; 9.07 µM with MALME-3M melanoma. The GI50 was 4.3 µM in the assay on OVCAR-3 ovarian, 16 µM in the assay with NCI/ADR-RES ovarian, 5.57 µM in the assay on SF-268 CNS and 6.34 µM in the assay on TK-10 renal. Moreover, the TGI in the assay on NCI-H522 lung was found to be 8.02 µM; with U251 CNS, 15 µM; in the assay on UACC-257 melanoma, 33.6 µM; in the assay on HT29 colon it was 11.3 µM; in the assay with IGROV1 ovarian, 96.6 µM; with MALME-3M melanoma, 68 µM. The TGI in the assay with OVCAR-3 ovarian is 15.2 µM; with NCI/ADR-RES ovarian it was > 100 µM; in the assay on SF-268 CNS it was 65.3 µM; in the assay with TK-10 renal it was 19.2 µM.

For `COc1ccc(/C=C2\CC(C)CC3C2=NN(C(C)=O)C3c2ccc(OC)c(OC)c2)cc1OC` (stereo unspecified), the GI50 in the assay with NCI-H522 lung was 14.5 µM; in the assay on U251 CNS, 14.3 µM; in the assay with UACC-257 melanoma it was 18.1 µM; in the assay on HT29 colon, 22.4 µM; in the assay with IGROV1 ovarian it was 20.2 µM; in the assay on MALME-3M melanoma it was 20.1 µM. For the same compound, the GI50 in the assay on OVCAR-3 ovarian was 18 µM; in the assay with NCI/ADR-RES ovarian, 12.8 µM; in the assay on SF-268 CNS it was 14.6 µM; in the assay with TK-10 renal, 65 µM. Moreover, the TGI with NCI-H522 lung was 40.4 µM; in the assay on U251 CNS, 28 µM; in the assay on UACC-257 melanoma, 33.9 µM; in the assay on HT29 colon it was > 100 µM; in the assay with IGROV1 ovarian it was 50.6 µM; in the assay on MALME-3M melanoma, 36.3 µM. Also, the TGI is 46 µM with OVCAR-3 ovarian, 43 µM with NCI/ADR-RES ovarian, 31.8 µM with SF-268 CNS and > 100 µM with TK-10 renal.

For the compound `CC(=O)OC1C(OC/C2=C/C3[C@@H](C(C)C)CC=C(C)[C@@H]3CC(OC(=O)/C=C/c3cn(C)cn3)[C@]3(C)C=C[C@@]2(O)O3)OCC(O)C1O` (stereo partly specified), the GI50 is 0.015 µM in the assay with NCI-H522 lung; 0.016 µM in the assay with U251 CNS; 0.0188 µM in the assay with UACC-257 melanoma; 0.0124 µM in the assay with HT29 colon; 0.0737 µM in the assay on IGROV1 ovarian; 0.0195 µM in the assay with MALME-3M melanoma. For the same compound, the GI50 was 0.0105 µM in the assay on OVCAR-3 ovarian, 4.81 µM with NCI/ADR-RES ovarian, 0.0336 µM in the assay on SF-268 CNS and 0.465 µM with TK-10 renal. In addition, the TGI was > 30.3 µM in the assay with U251 CNS; > 50 µM with UACC-257 melanoma; > 50 µM in the assay with HT29 colon; > 50 µM in the assay with IGROV1 ovarian; > 50 µM with MALME-3M melanoma; 0.0268 µM in the assay on OVCAR-3 ovarian. Further, the values for the TGI in the assay on NCI/ADR-RES ovarian, in the assay with SF-268 CNS and in the assay with TK-10 renal were > 39.4 µM, > 50 µM and > 50 µM, respectively.

Consider `CC1SC(c2cccc(Oc3ccccc3)c2)N(CCc2cccs2)C1=O` (stereo unspecified), for which the GI50 was 0.717 µM in the assay with NCI-H522 lung; 1.11 µM in the assay on U251 CNS; 1.25 µM in the assay on UACC-257 melanoma; 1.08 µM in the assay with HT29 colon; 1.07 µM in the assay on IGROV1 ovarian; 1.73 µM in the assay with MALME-3M melanoma. Besides, the GI50 in the assay on OVCAR-3 ovarian was 1.08 µM; with NCI/ADR-RES ovarian, 0.708 µM; in the assay with SF-268 CNS it was 1.18 µM; in the assay on TK-10 renal, 1.59 µM. In addition, the TGI was 2.12 µM in the assay with NCI-H522 lung; 2.49 µM in the assay with U251 CNS; 3.3 µM with UACC-257 melanoma; 2.93 µM with HT29 colon; 3.33 µM with IGROV1 ovarian; 3.58 µM in the assay on MALME-3M melanoma. Further, the TGI with OVCAR-3 ovarian was 2.3 µM; in the assay with NCI/ADR-RES ovarian, 3.01 µM; with SF-268 CNS, 3.6 µM; in the assay on TK-10 renal it was 4.28 µM.

For the compound `COc1cc(C2C3=C(COC3=O)N(CCO)c3cc4c(cc32)CCC4)cc(OC)c1OC` (stereo unspecified), the GI50 with NCI-H522 lung is 0.041 µM; in the assay with U251 CNS, 0.125 µM; in the assay on HT29 colon, 0.0975 µM; with IGROV1 ovarian, 0.0732 µM; in the assay on MALME-3M melanoma, 0.598 µM; with OVCAR-3 ovarian it was 0.0595 µM. In addition, the values for the GI50 in the assay on NCI/ADR-RES ovarian, in the assay with SF-268 CNS and in the assay with TK-10 renal were 0.709 µM, 0.0934 µM and 1.56 µM, respectively. For the same compound, the TGI is 0.212 µM with NCI-H522 lung; > 32.5 µM in the assay with U251 CNS; > 32.5 µM in the assay on UACC-257 melanoma; 0.232 µM in the assay on IGROV1 ovarian; > 32.5 µM with MALME-3M melanoma; 0.129 µM in the assay on OVCAR-3 ovarian. For the same compound, the TGI with NCI/ADR-RES ovarian was 4.45 µM; in the assay with TK-10 renal, > 32.5 µM.

Consider `COc1cc2c(cc1Nc1nc(Nc3ccsc3C(N)=O)c3cc[nH]c3n1)N(C(=O)CN(C)C)CCC2`, for which the GI50 in the assay on NCI-H522 lung was 0.507 µM; in the assay on U251 CNS, 1.14 µM; in the assay on UACC-257 melanoma, 0.0558 µM; in the assay with HT29 colon, < 0.0025 µM; in the assay with IGROV1 ovarian it was 1.79 µM; in the assay with MALME-3M melanoma, 2.58 µM. The GI50 in the assay on OVCAR-3 ovarian was 0.618 µM; in the assay with NCI/ADR-RES ovarian, 4.75 µM; with SF-268 CNS it was 1.15 µM; with TK-10 renal, 1.46 µM. The TGI in the assay with NCI-H522 lung is 2.19 µM; with U251 CNS, 12.8 µM; with UACC-257 melanoma it was 3.67 µM; with HT29 colon it was 0.681 µM; in the assay on IGROV1 ovarian, 8.36 µM; with MALME-3M melanoma, 6.24 µM. Besides, the TGI in the assay on OVCAR-3 ovarian is 2.13 µM; with NCI/ADR-RES ovarian, > 25 µM; in the assay on SF-268 CNS, 10.6 µM; in the assay on TK-10 renal, 6.27 µM.

Source of the values: PubChem BioAssay (NCI).
